Measured values from the supplement of paper PMC8612539.
Converted amounts (≈) assume the structure as drawn.

Test system: Escherichia coli
Experiment: minimum inhibitory concentration (MIC)
Description: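 Broth microdilution MIC (Sensititre BOPO7F bovine plate, CLSI methods) of 19 antimicrobials against field isolates of P. multocida, M. haemolytica, H. somni (deep nasopharyngeal swabs) and E. coli, Enterococcus spp. (rectal swabs) from weaned dairy heifers. Incubation 16-24 h at 35 C. MIC is the lowest concentration preventing visible growth. Values with <= or > lie at the tested range limits. Trimethoprim-sulfamethoxazole is given as the trimethoprim component of a 1:19 mixture.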

C=C[C@]1(C)C[C@@H](OC(=O)CSCCN(CC)CC)[C@]2(C)[C@H](C)CC[C@]3(CCC(=O)[C@H]32)[C@@H](C)[C@@H]1O [Tiamulin]
Conditions	minimum inhibitory concentration [µg/mL]
isolate (source animal id): 8	32 (≈ 64.8 µM)
isolate (source animal id): 9	> 32
isolate (source animal id): 10	> 32
isolate (source animal id): 11	> 32
isolate (source animal id): 12	> 32
isolate (source animal id): 13	> 32
isolate (source animal id): 14	> 32
isolate (source animal id): 15	> 32
isolate (source animal id): 16	> 32
isolate (source animal id): 98	> 32
isolate (source animal id): 99	> 32
isolate (source animal id): 100	32 (≈ 64.8 µM)
isolate (source animal id): 101	> 32
isolate (source animal id): 102	> 32
isolate (source animal id): 103	> 32
isolate (source animal id): 104	> 32
isolate (source animal id): 105	> 32
isolate (source animal id): 106	> 32
isolate (source animal id): 107	> 32
isolate (source animal id): 108	> 32
isolate (source animal id): 109	> 32
isolate (source animal id): 110	> 32
isolate (source animal id): 111	> 32
isolate (source animal id): 112	32 (≈ 64.8 µM)
isolate (source animal id): 113	> 32
isolate (source animal id): 114	> 32
isolate (source animal id): 115	> 32
isolate (source animal id): 116	32 (≈ 64.8 µM)
isolate (source animal id): 117	> 32
isolate (source animal id): 118	> 32
isolate (source animal id): 119	> 32
isolate (source animal id): 120	> 32
isolate (source animal id): 121	> 32
isolate (source animal id): 122	> 32
isolate (source animal id): 123	> 32
isolate (source animal id): 124	32 (≈ 64.8 µM)
isolate (source animal id): 125	16 (≈ 32.4 µM)
isolate (source animal id): 126	> 32
isolate (source animal id): 127	> 32
isolate (source animal id): 128	32 (≈ 64.8 µM)
isolate (source animal id): 129	32 (≈ 64.8 µM)
isolate (source animal id): 130	> 32
isolate (source animal id): 131	> 32
isolate (source animal id): 132	> 32
isolate (source animal id): 133	> 32
isolate (source animal id): 134	> 32
isolate (source animal id): 135	> 32
isolate (source animal id): 136	> 32
isolate (source animal id): 137	> 32
isolate (source animal id): 138	32 (≈ 64.8 µM)
isolate (source animal id): 139	> 32
isolate (source animal id): 140	> 32
isolate (source animal id): 141	> 32
isolate (source animal id): 142	> 32
isolate (source animal id): 143	> 32
isolate (source animal id): 144	> 32
isolate (source animal id): 145	> 32
isolate (source animal id): 146	> 32
isolate (source animal id): 147	32 (≈ 64.8 µM)
isolate (source animal id): 148	> 32
isolate (source animal id): 149	> 32
isolate (source animal id): 150	> 32
isolate (source animal id): 151	> 32
isolate (source animal id): 152	32 (≈ 64.8 µM)
isolate (source animal id): 153	> 32
isolate (source animal id): 154	> 32
isolate (source animal id): 155	32 (≈ 64.8 µM)
isolate (source animal id): 156	> 32
isolate (source animal id): 157	> 32
isolate (source animal id): 158	> 32
isolate (source animal id): 159	> 32
isolate (source animal id): 160	> 32
isolate (source animal id): 161	> 32
isolate (source animal id): 162	> 32
isolate (source animal id): 163	> 32
isolate (source animal id): 164	> 32
isolate (source animal id): 165	> 32
isolate (source animal id): 166	> 32
isolate (source animal id): 167	> 32
isolate (source animal id): 168	32 (≈ 64.8 µM)
isolate (source animal id): 169	> 32
isolate (source animal id): 170	32 (≈ 64.8 µM)
isolate (source animal id): 171	> 32
isolate (source animal id): 172	> 32
isolate (source animal id): 173	> 32
isolate (source animal id): 174	> 32
isolate (source animal id): 175	> 32
isolate (source animal id): 176	> 32
isolate (source animal id): 177	> 32
isolate (source animal id): 178	> 32
isolate (source animal id): 179	> 32
isolate (source animal id): 180	> 32
isolate (source animal id): 181	> 32
isolate (source animal id): 182	> 32
isolate (source animal id): 183	> 32
isolate (source animal id): 184	> 32
isolate (source animal id): 185	> 32
isolate (source animal id): 186	> 32
isolate (source animal id): 187	32 (≈ 64.8 µM)
isolate (source animal id): 188	> 32

CCC[C@@H]1C[C@@H](C(=O)N[C@@H]([C@H]2O[C@H](SC)[C@H](O)[C@@H](O)[C@H]2O)[C@H](C)Cl)N(C)C1 [Clindamycin]
Conditions	minimum inhibitory concentration [µg/mL]
isolate (source animal id): 8	> 16
isolate (source animal id): 9	> 16
isolate (source animal id): 10	> 16
isolate (source animal id): 11	> 16
isolate (source animal id): 12	> 16
isolate (source animal id): 13	> 16
isolate (source animal id): 14	> 16
isolate (source animal id): 15	> 16
isolate (source animal id): 16	> 16
isolate (source animal id): 98	> 16
isolate (source animal id): 99	> 16
isolate (source animal id): 100	> 16
isolate (source animal id): 101	> 16
isolate (source animal id): 102	> 16
isolate (source animal id): 103	> 16
isolate (source animal id): 104	> 16
isolate (source animal id): 105	> 16
isolate (source animal id): 106	> 16
isolate (source animal id): 107	> 16
isolate (source animal id): 108	> 16
isolate (source animal id): 109	> 16
isolate (source animal id): 110	> 16
isolate (source animal id): 111	> 16
isolate (source animal id): 112	> 16
isolate (source animal id): 113	> 16
isolate (source animal id): 114	> 16
isolate (source animal id): 115	> 16
isolate (source animal id): 116	> 16
isolate (source animal id): 117	> 16
isolate (source animal id): 118	> 16
isolate (source animal id): 119	> 16
isolate (source animal id): 120	> 16
isolate (source animal id): 121	> 16
isolate (source animal id): 122	> 16
isolate (source animal id): 123	> 16
isolate (source animal id): 124	> 16
isolate (source animal id): 125	> 16
isolate (source animal id): 126	> 16
isolate (source animal id): 127	> 16
isolate (source animal id): 128	> 16
isolate (source animal id): 129	> 16
isolate (source animal id): 130	> 16
isolate (source animal id): 131	> 16
isolate (source animal id): 132	> 16
isolate (source animal id): 133	> 16
isolate (source animal id): 134	> 16
isolate (source animal id): 135	> 16
isolate (source animal id): 136	> 16
isolate (source animal id): 137	> 16
isolate (source animal id): 138	> 16
isolate (source animal id): 139	> 16
isolate (source animal id): 140	> 16
isolate (source animal id): 141	> 16
isolate (source animal id): 142	> 16
isolate (source animal id): 143	> 16
isolate (source animal id): 144	> 16
isolate (source animal id): 145	> 16
isolate (source animal id): 146	> 16
isolate (source animal id): 147	> 16
isolate (source animal id): 148	> 16
isolate (source animal id): 149	> 16
isolate (source animal id): 150	> 16
isolate (source animal id): 151	> 16
isolate (source animal id): 152	> 16
isolate (source animal id): 153	> 16
isolate (source animal id): 154	> 16
isolate (source animal id): 155	> 16
isolate (source animal id): 156	> 16
isolate (source animal id): 157	> 16
isolate (source animal id): 158	> 16
isolate (source animal id): 159	> 16
isolate (source animal id): 160	> 16
isolate (source animal id): 161	> 16
isolate (source animal id): 162	> 16
isolate (source animal id): 163	> 16
isolate (source animal id): 164	> 16
isolate (source animal id): 165	> 16
isolate (source animal id): 166	> 16
isolate (source animal id): 167	> 16
isolate (source animal id): 168	> 16
isolate (source animal id): 169	> 16
isolate (source animal id): 170	> 16
isolate (source animal id): 171	> 16
isolate (source animal id): 172	> 16
isolate (source animal id): 173	> 16
isolate (source animal id): 174	> 16
isolate (source animal id): 175	> 16
isolate (source animal id): 176	> 16
isolate (source animal id): 177	> 16
isolate (source animal id): 178	> 16
isolate (source animal id): 179	> 16
isolate (source animal id): 180	> 16
isolate (source animal id): 181	> 16
isolate (source animal id): 182	> 16
isolate (source animal id): 183	> 16
isolate (source animal id): 184	> 16
isolate (source animal id): 185	> 16
isolate (source animal id): 186	> 16
isolate (source animal id): 187	> 16
isolate (source animal id): 188	> 16
